According to patent publication US11629171B2, “Beta-hairpin peptidomimetics” (POLYPHOR AG, priority 2017, dated 2023):
Converted amounts (≈) assume the structure as drawn. Where a SMILES comes first, the peptide text is derived from it. Bridges are numbered along the chain shown (N, C = ends). Roman numbers before positions name the chains, in order. [ ]: non-standard residue; d: D form. The star is where a group is joined. Thr(ol) = C[C@@H](O)[C@H](N)CO; Tle = CC(C)(C)[C@H](N)C(=O)O; Hiv = CC(C)[C@H](O)C(=O)O; dDab = NCC[C@@H](N)C(=O)O; hSer = N[C@@H](CCO)C(=O)O; Dab = NCC[C@H](N)C(=O)O; NHCH2CH2OH = OCCN*

Legend:
Assay type in all cases: cell-based
[1] = tested on: Pseudomonas aeruginosa ATCC 27853; conditions: ATCC 27853
Outline: (§1)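 MIC in μg/mL, read as absence of visible growth after 18-20 h incubation at 35° C, by standard CLSI microdilution. Peptides tested in two-fold serial dilution in cation-adjusted MH-II broth containing 0.002% (final) Polysorbate 80, against roughly 10^6 CFU/mL inocula.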

[2] = tested on: Escherichia coli ATCC 25922; conditions: ATCC 25922
Outline: as §1

[3] = tested on: Acinetobacter baumannii DSM 30008; conditions: DSM 30008
Outline: as §1

[4] = tested on: Klebsiella pneumoniae SSI #3010; conditions: SSI #3010
Outline: as §1

[5] = tested on: Acinetobacter baumannii 872842; conditions: 872842
Outline: as §1

Escherichia coli 926415 = conditions: 926415
Outline: as §1

[6] = tested on: Enterobacter cloacae 848840; conditions: 848840
Outline: as §1

[7] = tested on: Klebsiella pneumoniae 968733; conditions: 968733
Outline: as §1

[8] = tested on: human red blood cells (hRBC); assay: Hemolysis; conditions: red cells of human, 1 h, 200
Outline: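 hRBC washed 4× in PBS; 200 μg/mL peptide + 20% (v/v) hRBC, 1 h, 37° C, 300 rpm. Spin, supernatant ~7.5-fold diluted, OD540 blank corrected. % hemolysis = OD540 peptide / OD540 Triton X-100 × 100.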

| SMILES | MIC [1] [µg/mL] | MIC [2] [µg/mL] | MIC [3] [µg/mL] | MIC [4] [µg/mL] | MIC [5] [µg/mL] | MIC (Escherichia coli 926415) [µg/mL] | MIC [6] [µg/mL] | MIC [7] [µg/mL] | Hemolysis at 200 μg/mL [8] [%] |
| --- | --- | --- | --- | --- | --- | --- | --- | --- | --- |
| CC(C)C[C@@H]1NC(=O)[C@@H](CC(C)C)NC(=O)[C@H](CCN)NC(=O)[C@@H](NC(=O)[C@H](CCN)NC(=O)[C@@H](NC(=O)[C@H](CCN)NC(=O)CC[C@@H]2NC(=O)[C@H](CCN)NC(=O)[C@H](C(C)C)NC(=O)[C@@H](NC(=O)[C@@H](O)C(C)C)CSSC[C@@H](C(=O)N[C@@H](Cc3ccc(O)cc3)C(=O)NCCO)NC(=O)[C@H](C(C)(C)C)NC(=O)[C@H](CO)NC(=O)[C@H](Cc3c[nH]c4ccccc34)NC(=O)[C@H](CCO)NC(=O)[C@@H](CCN)NC2=O)[C@@H](C)O)CCNC(=O)[C@H]([C@@H](C)O)NC(=O)[C@H](CCN)NC(=O)[C@H](CCN)NC1=O [Ex. 69] (I: H-[Hiv]CV[Dab]E[dDab][hSer]WS[Tle]CY-NHCH2CH2OH / II: [Dab]T[Dab][Dab][Dab][dL]L[Dab][Dab]T; disulfide I:2-I:11; amide I:5-II:N; lactam II:4-II:C) | 0.125 (≈ 0.0509 µM) | 0.0625 (≈ 0.0254 µM) | 0.0625 (≈ 0.0254 µM) | 0.0625 (≈ 0.0254 µM) | 0.0625 (≈ 0.0254 µM) | 0.0625 (≈ 0.0254 µM) | 0.125 (≈ 0.0509 µM) | 0.125 (≈ 0.0509 µM) | 2 |
| CC(C)C[C@@H]1NC(=O)[C@@H](CC(C)C)NC(=O)[C@H](CCN)NC(=O)[C@@H](NC(=O)[C@H](CCN)NC(=O)[C@@H](NC(=O)[C@H](CCN)NC(=O)CC[C@@H]2NC(=O)[C@H](CCN)NC(=O)[C@H]([C@@H](C)O)NC(=O)[C@@H](NC(=O)[C@@H](O)C(C)C)CSSC[C@@H](C(=O)N[C@@H](Cc3ccc(O)cc3)C(=O)NCCO)NC(=O)[C@H](C(C)(C)C)NC(=O)[C@H](CO)NC(=O)[C@H](Cc3c[nH]c4ccccc34)NC(=O)[C@H](CCO)NC(=O)[C@@H](CCN)NC2=O)[C@@H](C)O)CCNC(=O)[C@H]([C@@H](C)O)NC(=O)[C@H](CCN)NC(=O)[C@H](CCN)NC1=O [Ex. 70] (I: H-[Hiv]CT[Dab]E[dDab][hSer]WS[Tle]CY-NHCH2CH2OH / II: [Dab]T[Dab][Dab][Dab][dL]L[Dab][Dab]T; disulfide I:2-I:11; amide I:5-II:N; lactam II:4-II:C) | 0.125 (≈ 0.0509 µM) | 0.125 (≈ 0.0509 µM) | 0.0625 (≈ 0.0254 µM) | 0.125 (≈ 0.0509 µM) | 0.25 (≈ 0.102 µM) | 0.5 (≈ 0.203 µM) | 0.125 (≈ 0.0509 µM) | 0.25 (≈ 0.102 µM) | <1 |
| CC(=O)N[C@H](C(=O)N[C@H]1CSSC[C@@H](C(=O)N[C@@H](Cc2ccc(O)cc2)C(=O)NCCO)NC(=O)[C@H](C(C)(C)C)NC(=O)[C@H](CO)NC(=O)[C@H](Cc2c[nH]c3ccccc23)NC(=O)[C@H](CCO)NC(=O)[C@@H](CCN)NC(=O)[C@H](CCC(=O)N[C@@H](CCN)C(=O)N[C@H](C(=O)N[C@@H](CCN)C(=O)N[C@H]2CCNC(=O)[C@H]([C@@H](C)O)NC(=O)[C@H](CCN)NC(=O)[C@H](CCN)NC(=O)[C@H](CC(C)C)NC(=O)[C@@H](CC(C)C)NC(=O)[C@H](CCN)NC2=O)[C@@H](C)O)NC(=O)[C@H](CCN)NC(=O)[C@H](CO)NC1=O)C(C)C [Ex. 71] (I: Ac-VCS[Dab]E[dDab][hSer]WS[Tle]CY-NHCH2CH2OH / II: [Dab]T[Dab][Dab][Dab][dL]L[Dab][Dab]T; disulfide I:2-I:11; amide I:5-II:N; lactam II:4-II:C) | 0.125 (≈ 0.0503 µM) | 0.0625 (≈ 0.0252 µM) | 0.0625 (≈ 0.0252 µM) | 0.125 (≈ 0.0503 µM) | 0.125 (≈ 0.0503 µM) | 0.25 (≈ 0.101 µM) | 0.25 (≈ 0.101 µM) | 0.25 (≈ 0.101 µM) | 1 |
| CC(C)C[C@@H]1NC(=O)[C@@H](CC(C)C)NC(=O)[C@H](CCN)NC(=O)[C@@H](NC(=O)[C@H](CCN)NC(=O)[C@@H](NC(=O)[C@H](CCN)NC(=O)CC[C@@H]2NC(=O)[C@H](CCN)NC(=O)[C@H](Cc3ccc(O)cc3)NC(=O)[C@@H](NC(=O)[C@@H](O)C(C)C)CSSC[C@@H](C(=O)NCCO)NC(=O)[C@H](C(C)(C)C)NC(=O)[C@H](CO)NC(=O)[C@H](Cc3c[nH]c4ccccc34)NC(=O)[C@H](CCO)NC(=O)[C@@H](CCN)NC2=O)[C@@H](C)O)CCNC(=O)[C@H]([C@@H](C)O)NC(=O)[C@H](CCN)NC(=O)[C@H](CCN)NC1=O [Ex. 72] (I: H-[Hiv]CY[Dab]E[dDab][hSer]WS[Tle]C-NHCH2CH2OH / II: [Dab]T[Dab][Dab][Dab][dL]L[Dab][Dab]T; disulfide I:2-I:11; amide I:5-II:N; lactam II:4-II:C) | 0.125 (≈ 0.053 µM) | 0.0625 (≈ 0.0265 µM) | 0.0625 (≈ 0.0265 µM) | 0.125 (≈ 0.053 µM) | 0.0625 (≈ 0.0265 µM) | 0.125 (≈ 0.053 µM) | 0.25 (≈ 0.106 µM) | 0.125 (≈ 0.053 µM) | <1 |
| CC(C)C[C@@H]1NC(=O)[C@@H](CC(C)C)NC(=O)[C@H](CCN)NC(=O)[C@@H](NC(=O)[C@H](CCN)NC(=O)[C@@H](NC(=O)[C@H](CCN)NC(=O)CC[C@@H]2NC(=O)[C@H](CCN)NC(=O)[C@H](Cc3ccc(O)cc3)NC(=O)[C@@H](NC(=O)[C@@H](O)C(C)C)CSSC[C@@H](C(=O)N[C@H](CO)[C@@H](C)O)NC(=O)[C@H](C(C)(C)C)NC(=O)[C@H](CO)NC(=O)[C@H](Cc3c[nH]c4ccccc34)NC(=O)[C@H](CCO)NC(=O)[C@@H](CCN)NC2=O)[C@@H](C)O)CCNC(=O)[C@H]([C@@H](C)O)NC(=O)[C@H](CCN)NC(=O)[C@H](CCN)NC1=O [Ex. 74] (I: H-[Hiv]CY[Dab]E[dDab][hSer]WS[Tle]C[Thr(ol)] / II: [Dab]T[Dab][Dab][Dab][dL]L[Dab][Dab]T; disulfide I:2-I:11; amide I:5-II:N; lactam II:4-II:C) | 0.25 (≈ 0.104 µM) | 0.0625 (≈ 0.026 µM) | 0.0625 (≈ 0.026 µM) | 0.0625 (≈ 0.026 µM) | 0.0625 (≈ 0.026 µM) | 0.25 (≈ 0.104 µM) | 0.125 (≈ 0.0521 µM) | 0.0625 (≈ 0.026 µM) | <1 |
| CC(C)C[C@@H]1NC(=O)[C@@H](CC(C)C)NC(=O)[C@H](CCN)NC(=O)[C@@H](NC(=O)[C@H](CCN)NC(=O)[C@@H](NC(=O)[C@H](CCN)NC(=O)CC[C@@H]2NC(=O)[C@H](CCN)NC(=O)[C@H](Cc3ccc(O)cc3)NC(=O)[C@@H](NC(=O)[C@@H](O)C(C)C)CSSC[C@@H](C(=O)N[C@H](CO)[C@@H](C)O)NC(=O)[C@H](C(C)(C)C)NC(=O)[C@H](CO)NC(=O)[C@H](Cc3c[nH]c4ccccc34)NC(=O)[C@H](CCO)NC(=O)[C@@H](CCCNC(=N)N)NC2=O)[C@@H](C)O)CCNC(=O)[C@H]([C@@H](C)O)NC(=O)[C@H](CCN)NC(=O)[C@H](CCN)NC1=O [Ex. 75] (I: H-[Hiv]CY[Dab]E[dR][hSer]WS[Tle]C[Thr(ol)] / II: [Dab]T[Dab][Dab][Dab][dL]L[Dab][Dab]T; disulfide I:2-I:11; amide I:5-II:N; lactam II:4-II:C) | 0.125 (≈ 0.0509 µM) | 0.0625 (≈ 0.0254 µM) | 0.0625 (≈ 0.0254 µM) | 0.125 (≈ 0.0509 µM) | 0.0625 (≈ 0.0254 µM) | 0.125 (≈ 0.0509 µM) | 0.125 (≈ 0.0509 µM) | 0.125 (≈ 0.0509 µM) | <1 |
| CC(C)C[C@@H]1NC(=O)[C@@H](CC(C)C)NC(=O)[C@H](CCN)NC(=O)[C@@H](NC(=O)[C@H](CCN)NC(=O)[C@@H](NC(=O)[C@H](CCN)NC(=O)CC[C@@H]2NC(=O)[C@H](CCN)NC(=O)[C@H](Cc3ccc(O)cc3)NC(=O)[C@@H](NC(=O)[C@@H](O)C(C)C)CSSC[C@@H](C(=O)N[C@H](CO)[C@@H](C)O)NC(=O)[C@H](C(C)(C)C)NC(=O)[C@H]([C@@H](C)O)NC(=O)[C@H](Cc3c[nH]c4ccccc34)NC(=O)[C@H](CCO)NC(=O)[C@@H](CCN)NC2=O)[C@@H](C)O)CCNC(=O)[C@H]([C@@H](C)O)NC(=O)[C@H](CCN)NC(=O)[C@H](CCN)NC1=O [Ex. 76] (I: H-[Hiv]CY[Dab]E[dDab][hSer]WT[Tle]C[Thr(ol)] / II: [Dab]T[Dab][Dab][Dab][dL]L[Dab][Dab]T; disulfide I:2-I:11; amide I:5-II:N; lactam II:4-II:C) | 0.25 (≈ 0.104 µM) | 0.0625 (≈ 0.0259 µM) | 0.0625 (≈ 0.0259 µM) | 0.125 (≈ 0.0518 µM) | 0.25 (≈ 0.104 µM) | 0.125 (≈ 0.0518 µM) | 0.125 (≈ 0.0518 µM) | 0.125 (≈ 0.0518 µM) | 1 |
